Results on two compounds are retold here after US10780099B2, “Injectable neurosteroid formulations containing nanoparticles” (MARINUS PHARMACEUTICALS, INC., priority 2015, dated 2020).

For data set [1] the following is noted: cited from earlier work.

Like-named read-outs stand apart in the source and are kept apart here. Where only a bound is given, the exact number is not on record here.

Consider `CC(=O)[C@H]1CC[C@H]2[C@@H]3CC[C@H]4C[C@H](O)CC[C@]4(C)[C@H]3CC[C@]12C` [Allopregnanolone, 3α,5α-tetrahydroprogesterone], for which the half-life result in data set [1] (human plasma) is listed as “about 45 minutes”.
The solubility is how much of the substance goes into solution per volume. The low end stands for little dissolved substance, the high end for much dissolved substance. Turning to `CC(=O)[C@H]1CC[C@H]2[C@@H]3CC[C@H]4C[C@](C)(O)CC[C@]4(C)[C@H]3CC[C@]12C` [Ganaxolone, 3α-hydroxy, 3β-methyl-5α-pregnan-20-one], in the data set “Solubility in water”, the solubility was < 1 µg/mL. Besides, in data set [1] (human plasma following oral administration), the half-life entry is recorded as “approximately 20 hours”. The Tmax result in data set [1] (in vivo) is reported as “short”.
